Reference: patent US8119647B2, “Fused pyrimidineone compounds as TRPV3 modulators” (Glenmark Pharmaceuticals S.A., priority 2008, dated 2012)

Molecular target: T1, Human TRPV3 (Homo sapiens, UniProt Q8NET8)
T1 construct: expressed in transfected cells; host or cells: CHO cells (G-418 selection)
T1 sequence (Q8NET8 1-790): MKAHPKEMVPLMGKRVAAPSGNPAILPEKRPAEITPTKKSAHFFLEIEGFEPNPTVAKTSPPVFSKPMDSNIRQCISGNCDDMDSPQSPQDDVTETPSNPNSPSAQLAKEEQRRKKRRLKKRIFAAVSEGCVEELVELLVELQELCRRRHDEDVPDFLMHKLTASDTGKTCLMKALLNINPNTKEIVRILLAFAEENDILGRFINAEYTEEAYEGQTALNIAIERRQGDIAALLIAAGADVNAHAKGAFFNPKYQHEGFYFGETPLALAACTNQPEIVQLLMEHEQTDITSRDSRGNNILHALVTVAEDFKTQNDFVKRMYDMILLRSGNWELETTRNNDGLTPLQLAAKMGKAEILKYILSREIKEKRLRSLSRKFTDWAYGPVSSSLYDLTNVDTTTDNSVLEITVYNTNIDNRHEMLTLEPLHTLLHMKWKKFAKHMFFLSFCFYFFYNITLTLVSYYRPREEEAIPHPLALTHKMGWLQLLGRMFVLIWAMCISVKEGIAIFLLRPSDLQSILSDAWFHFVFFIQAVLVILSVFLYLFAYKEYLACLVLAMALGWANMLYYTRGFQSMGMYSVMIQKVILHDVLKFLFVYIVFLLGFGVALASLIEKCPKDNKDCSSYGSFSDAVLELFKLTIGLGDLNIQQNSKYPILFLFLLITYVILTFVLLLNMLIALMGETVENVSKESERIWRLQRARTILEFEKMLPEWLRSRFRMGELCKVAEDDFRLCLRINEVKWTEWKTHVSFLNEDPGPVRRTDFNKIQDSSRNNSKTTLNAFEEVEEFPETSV
Assay: Screening for TRPV3 antagonist using the 45Calcium uptake assay (inhibition of 2-APB induced cellular uptake of radioactive calcium)
Type: cell-based
Settings: human TRPV3 expressing CHO cells, 2-APB 500 μM; for Percentage inhibition at 1.0 μM / inhibition at 1 µM: 1.0 μM test compound; for Percentage inhibition at 10.0 μM / inhibition at 10 µM: 10.0 μM test compound; for IC50: class symbols; for inhibition at 1 µM: read-out: Percentage inhibition at 1.0 μM; for inhibition at 10 µM: read-out: Percentage inhibition at 10.0 μM
Summary of the method: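 CHO cells stably expressing human TRPV3, preincubated 10 min with test compound, then 2-APB (500 μM final) plus 5 μCi/ml 45Ca2+ for 4 min in DMEM/F-12 with 1.8 mM CaCl2; 0.5% DMSO final. Lysate radioactivity by scintillation counting. IC50 by nonlinear regression of % maximal response; % inhibition at 1.0 and 10.0 μM.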

Row | Compound | IC50 [µM] | inhibition at 1 µM [%] | inhibition at 10 µM [%] | Percentage inhibition at 1.0 μM [%] | Percentage inhibition at 10.0 μM [%]
1 | COc1cccc(/C=C/c2nc3sccn3c(=O)c2-c2cc(F)cc(F)c2)c1OCC1CC1 [Example 8] | – | – | – | 2.0 | 20.5
2 | 7-[(E)-2-{(3-Cyanopropoxy)-3-methoxy}phenylvinyl]-6-[4-(trifluoromethoxy)phenyl]-5H-[1,3]thiazolo[3,2-a]pyrimidin-5-one [Example 74] | – | – | – | 30.20 | 86.42
3 | CCOCCOc1c(/C=C/c2nc3sccn3c(=O)c2-c2ccc(C(F)(F)F)cc2)cccc1OC [Example 32, {7-[(E)-2-(2-Ethoxyethoxy)-3-methoxy)phenyl-1-ethenyl]-6-[4-(trifluoromethyl)phenyl]-5H-[1,3]thiazolo[3,2-a]pyrimidin-5-one] | 0.25 to 0.5 | – | – | 89.3 | 97.7
4 | COc1cccc(/C=C/c2nc3sc4ccccc4n3c(=O)c2-c2ccc(C#N)cc2)c1OCCCC#N [Example 83, 4-(2-{(E)-2-[2-(3-Cyanopropoxy)-3-methoxyphenyl}-1-ethenyl}-4-oxo-4H-benzo[4,5]-[1,3]thiazolo-[3,2]pyrimidin-3-yl)benzonitrile] | – | – | – | 23.6 | 57.1
5 | CCCOc1c(/C=C/c2nc3sccn3c(=O)c2-c2ccc(C(F)(F)F)cc2)cccc1OC [Example 25, 7-[(E)-2-(3-Methoxy-2-propoxyphenyl)-1-ethenyl]-6-[4-(trifluoromethyl)phenyl]-5H-[1,3]thiazolo[3,2-a]pyrimidin-5-one] | 0.5 to 1 | 70.7 | 89.9 | – | –
6 | COc1cccc(/C=C/c2nc3sc4ccccc4n3c(=O)c2-c2ccc(OC(F)(F)F)cc2)c1OCC1CC1 [Example 95] | – | 10.9 | 23.7 | – | –
7 | COc1cccc(/C=C/c2nc3sc(Cl)cn3c(=O)c2-c2ccc(OC(F)(F)F)cc2)c1OCC(C)(C)C [Example 78, 2-Chloro-7-[(E)-2-(2-(2,2-dimethylpropoxy)-3-methoxyphenyl)vinyl]-6-[4-(trifluoromethoxy)phenyl]-5H-[1,3]thiazolo[3,2-a]pyrimidin-5-one] | – | 27.1 | 47.5 | – | –
8 | 7-[(E)-2-(4-Chlorophenyl)vinyl]-6-phenyl-5H-[1,3]thiazolo[3,2-a]pyrimidin-5-one [Example 1] | – | – | – | 6.9 | 14.4
9 | COc1cccc(/C=C/c2nc3sc(C)cn3c(=O)c2-c2ccc(OC(F)(F)F)cc2)c1OCC1CC1 [Example 75, 7-[(E)-2-(2-Cyclopropylmethoxy-3-methoxyphenyl)-1-ethenyl]-2-methyl-6-[4-(trifluoromethoxy)phenyl]-5H-[1,3]thiazolo[3,2-a]pyrimidin-5-one] | < 0.25 | 86.3 | 90.4 | – | –
10 | COc1cccc(/C=C/c2nc3sccn3c(=O)c2-c2ccc(OC(F)(F)F)cc2)c1OCCCCF [Example 56, 4-7-[(E)-2-{2-(4-Fluorobutoxy)-3-methoxyphenyl}-1-ethenyl]-6-[4-(trifluoromethoxy)phenyl]-5H-[1,3]thiazolo[3,2-a]pyrimidin-5-one] | 0.25 to 0.5 | – | – | 80.9 | 93.5

Second part, led by results:

Row | IC50 [µM] | inhibition at 1 µM [%] | inhibition at 10 µM [%] | Compound | Percentage inhibition at 1.0 μM [%] | Percentage inhibition at 10.0 μM [%]
11 | – | 20.2 | 39.3 | CCOCCOc1c(/C=C/c2nc3sc4ccccc4n3c(=O)c2-c2ccc(OC(F)(F)F)cc2)cccc1OC [Example 97, 2-{(E)-2-[(2-Ethoxyethoxy)-3-methoxyphenyl]-1-ethenyl}-3-(4-trifluoromethoxy-phenyl)-4H-benzo[4,5][1,3]thiazolo-[3,2-a]pyrimidin-4-one] | – | –
12 | < 0.25 | 91.9 | 95.4 | COc1cccc(/C=C/c2nc3sccn3c(=O)c2-c2ccc(C#N)cc2)c1OCC(C)(C)C [Example 13, 4-{7-[(E)-2-(3-Methoxy-2-neopentyloxyphenyl)-1-ethenyl]-5-oxo-5H-[1,3]thiazolo[3,2-a]pyrimidin-6-yl}benzonitrile] | – | –
13 | < 0.25 | 81.4 | 91.8 | O=c1c(-c2ccc(OC(F)(F)F)cc2)c(/C=C/c2cccc(OC(F)F)c2OCC2CC2)nc2sccn12 [Example 63, 7-{(E)-2-[2-(Cyclopropylmethoxy)-3-difluoromethoxyphenyl]-1-ethenyl}-6-(4-trifluoromethoxyphenyl)-5H-[1,3]thiazolo[3,2-a]pyrimidin-5-one] | – | –
14 | – | 24.8 | 67.7 | COCCOc1c(/C=C/c2nc3sc4ccccc4n3c(=O)c2-c2ccc(OC(F)(F)F)cc2)cccc1OC [Example 96, 2-{(E)-2-[3-Methoxy-2-(2-methoxyethoxy)phenyl]-1-ethenyl}-3-(4-trifluoromethoxy-phenyl)-4H-benzo[4,5][1,3]thiazolo-[3,2-a]pyrimidin-4-one] | – | –
15 | 0.25 to 0.5 | 74.6 | 88.4 | COc1cccc(/C=C/c2nc3sccn3c(=O)c2-c2ccc(C#N)cc2)c1OCC1CCCCC1 [Example 19, 4-{7-[(E)-2-(2-Cyclohexylmethoxy-3-methoxy)phenyl-1-ethenyl]-5-oxo-5H-[1,3]-thiazolo[3,2-a]pyrimidin-6-yl}benzonitrile] | – | –
16 | < 0.25 | 85.3 | 97.4 | COc1cccc(/C=C/c2nc3sccn3c(=O)c2-c2ccc(C(F)(F)F)cc2)c1OCC1CC1 [Example 33, {7-[(E)-2-(2-Cyclopropylmethoxy)-3-methoxyphenyl]-1-ethenyl]-6-[4-(trifluoromethyl)phenyl]-5H-[1,3]thiazolo[3,2-a]pyrimidin-5-one] | – | –
17 | 0.25 to 0.5 | 74.8 | 92.9 | CCCCCOc1c(/C=C/c2nc3sccn3c(=O)c2-c2ccc(C#N)cc2)cccc1OC [Example 10, 4-{7-[(E)-2-(3-Methoxy-2-pentyloxyphenyl)-1-ethenyl]-5-oxo-5H-[1,3]-thiazolo[3,2-a]pyrimidin-6-yl}benzonitrile] | – | –
18 | – | 44 | 88.6 | CCOc1ccc(-c2c(/C=C/c3cccc(OC)c3OCC3CC3)nc3sccn3c2=O)cc1 [Example 44, 7-[(E)-2-(2-Cyclopropylmethoxy-3-methoxyphenyl)-1-ethenyl]-6-(4-ethoxyphenyl)-5H-[1,3]thiazolo[3,2-a]pyrimidin-5-one] | – | –
